“And” between values parts separate entries of the source, which are not always exact repeats. Equal values may be shown once. The source made the active and inactive calls.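 How the source made its calls: active means compounds giving half or more protection of infected cells from virus-caused growth loss, again on retest; inactive means the rest.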

The EC50 is the concentration giving half of the maximal effect. In general, IC50 refers to the concentration needed to halve the response being measured. Read a low IC50 as higher potency.

The test system of the assay is CEM cells HIV-1 protection, formazan growth assay. The assay can be described thus: NCI AIDS Antiviral Assay. The settings on record: for IC50: measured here: growth of uninfected CEM cells. An outline of the steps:
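Human CEM cells, uninfected and HIV-1-infected, exposed to five drug concentrations; growth measured by soluble formazan assay and scored as percent protection from infection, with protecting compounds retested.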

In the case of `CSc1nc2c(c(=O)n1C)N=C(c1ccccc1)[C@H](C(CC(=O)c1ccccc1)c1ccccc1)C(c1ccccc1)N2` (stereo not given in full), the EC50 was above 200 µM and the IC50 came out at 47.9 µM.

Turning to `OC1(c2ccc(Cl)cc2)c2ccccc2C2=NCc3ccccc3CN21` (stereo not given), the EC50 is above 200 µM and the IC50 is 33.1 µM.

Consider `N#CCN1CCCN(CC#N)CCN(CC#N)CCCN(CC#N)CC1`, for which the EC50 is above 200 µM and the IC50 was determined as 141 µM.

For the compound `COC(=NC(C)C)NC(C)C`, the EC50 was above 200 µM and the IC50 is above 200 µM.

Take `Cc1cc(NS(=O)(=O)c2ccc(NC(NC(=O)C(C(F)(F)F)C(F)(F)F)(C(F)(F)F)C(F)(F)F)cc2)no1`: the EC50 was above 200 µM and the half-maximal inhibitory concentration (IC50) is above 200 µM.

For the compound `COC1=NS(=O)(=O)C2(O1)c1ccccc1-c1ccccc12`, the EC50 was above 117 µM and the IC50 was found to be 89.1 µM.

Turning to `CCc1ccc(NCc2cc(OC)c(OC)c(OC)c2)cc1`, the EC50 is above 166 µM; the IC50 is 0.372 µM and 0.151 µM.

For the compound `CC(=O)OC1C(O[C@H]2CC[C@]34O[C@]35CC[C@]3(C)C(C6(C)CC[C@@H](C(C)(C)O)O6)[C@@H](O)CC3(C)[C@@H]5CC(OC3OC(CO)C(O)C(O)C3O)C4C2(C)C)OCC(O)C1O` (stereo not given in full), the EC50 is 67.6 µM and the IC50 came out at 302 µM.

On to `COC(=O)c1cc(=O)nc(N/N=C/c2ccc(C)cc2)s1`, for which the EC50 was above 44.7 µM and the IC50 stood at 30.9 µM.

Consider `O=C1CCC(=O)N1n1c(Cc2ccc(Cl)cc2)n[nH]c1=O`, for which the EC50 is above 200 µM and the IC50 was above 200 µM.

Turning to `Cc1ccc2ccccc2c1NC1=NCCO1`, the EC50 was above 200 µM and the IC50 came to 107 µM.

Take `CCCCCCCC(=O)OCC(COC(=O)C(C)(C)C)OC(=O)Cc1ccccc1` (stereo not given): the EC50 is above 251 µM and the IC50 is above 251 µM.

In the case of `Cc1cccc2c(N)c3cccc(C(=O)NCC[N+](C)(C)Cc4ccccc4[N+](=O)[O-])c3nc12`, the EC50 is above 100 µM and the IC50 is 3.55 µM.

As to `C1CC(C2OCOC3COCOC32)OO1` (stereo not given), the EC50 is above 200 µM and the IC50 was above 200 µM.

As for `C/C(CN1C(=O)c2ccccc2C1=O)=N\NS(=O)(=O)c1ccc(C)cc1`, the EC50 is above 355 µM and the IC50 is above 355 µM.

Take `Cc1cn(C2CC(O[Si](C)(C)C(C)(C)C)C(CN(O)C(N)=O)O2)c(=O)[nH]c1=O` (stereo not given): the EC50 was above 200 µM and the IC50 is above 200 µM.

With `CC(=O)[O-].CC(=O)[O-].CC(=O)[O-].CC(=O)[O-].CO.CO.CO.[Rh+2].[Rh+2].c1ccc(-c2ccccn2)nc1`, the EC50 was 145 µM and the IC50 is 174 µM.

Consider `CC(=S)N=Cc1c(O)cc(C)oc1=O`, for which the EC50 is above 200 µM and the IC50 was above 200 µM.

For the compound `CC(C)=CCC/C(=C/CC/C(C)=C/CCc1ccoc1)C(=O)O`, the EC50 was above 295 µM and the IC50 was 107 µM.

In the case of `BrCCCCCOc1ccc(-c2c3ccccc3c(-c3ccc(OCCCCCBr)cc3)c3ccccc23)cc1`, the EC50 is above 100 µM and the IC50 is above 100 µM.

For `COc1ccc2c(c1)CCc1cc(OC)ccc1/[N+]([O-])=[N+]\2[O-]`, the EC50 is above 17.4 µM and the IC50 is above 17.4 µM.

In the case of `COC1=CC(=O)[C@@]2(C)C(C)[C@H](c3ccccc3)[C@H]2C1=O` (stereo not given in full), the EC50 was above 251 µM and the IC50 was above 251 µM.

In the case of `Nc1ncc2c(ncn2CC(O)CO)n1` (stereo not given), the EC50 was above 1200 µM and the IC50 was above 1200 µM.

For the compound `C=C1C(=O)C=C2C=C3C(=O)C(C)(C)C[C@]3(O)C12C` (stereo not given in full), the EC50 is above 1020 µM and the 50% inhibitory concentration (IC50) came to 0.389 µM.

On to `CC(=O)OC(C)(C)/C=C/C(=O)[C@](C)(O)[C@H]1[C@H](O)C[C@@]2(C)[C@@H]3CC=C4[C@@H](C[C@H](O)C(=O)C4(C)C)[C@]3(C)C(=O)C[C@]12C`, for which the EC50 is above 0.2 µM and the IC50 stood at 0.00955 µM.

With `CCOC(=O)c1nnsc1NC(=O)NN`, the EC50 is above 200 µM and the IC50 is above 200 µM.

As for `O=c1[nH]nc(Cc2ccccc2)n1/N=C/c1c(O)ccc2ccccc12`, the EC50 was 40.7 µM and the IC50 came to 174 µM.

On to `COc1c(Cl)cc(C(=CCCCCN(C(=O)C=C(c2cc(Cl)c(OC)c(C(=O)O)c2)c2cc(Cl)c(OC)c(C(=O)O)c2)[C@H]2CC[C@@]3(C)[C@@H](CC[C@@H]4[C@@H]3CC[C@]3(C)[C@@H](C(C)CCCC(C)C)CC[C@@H]43)C2)c2cc(Cl)c(OC)c(C(=O)O)c2)cc1C(=O)O` (stereo not given in full), for which the EC50 was 12.9 µM and the IC50 came to 81.3 µM.

`CCOc1ccc(N=Cc2ccnc3ccccc23)cc1`: the result was inactive.

Take `CC1(C)COC(c2cccc(C3=NC(C)(C)CO3)c2)=N1`: the EC50 is above 200 µM and the IC50 was above 200 µM.

Turning to `Cc1ccccc1N1C(=O)CC2(CCCC2)C1=O`, the EC50 is above 363 µM and the IC50 stood at 214 µM.

On to `S=c1[nH]nc2scnn12`, for which the EC50 was above 200 µM and the IC50 is above 200 µM.

As for `O=C1NCCCCC1CCCC#Cc1ccccc1` (stereo not given), the EC50 is above 74.1 µM and the IC50 amounted to 45.7 µM.

With `CC(C)=CC(=O)CC(=O)C(=O)NCCNC(=O)C(=O)CC(=O)C=C(C)C`, the EC50 was above 2.09 µM and the IC50 was above 2.09 µM.

Turning to `CC(C)OP(=O)(OC(C)C)C(C(F)(F)F)C(F)(F)F`, the EC50 was above 200 µM and the IC50 is above 200 µM.

For `O=C1C=C(N2CCN(CCO)CC2)C(=O)c2c(N3CCN(CCO)CC3)cc(N3CCN(CCO)CC3)nc21`, the EC50 was above 158 µM and the IC50 was above 158 µM.

For the compound `C[S+]1Cc2nc3ccccc3n2C1c1c(F)cccc1F` (stereo not given), the EC50 is above 178 µM and the half-inhibitory concentration (IC50) was 79.4 µM.

Take `CC1=C(C(=O)NCCc2ccccc2)CC(C(=O)NCCc2ccccc2)=C(C)N1`: the EC50 is above 200 µM and the IC50 is 123 µM.

On to `Cc1nc(C(N)=S)sc1C(=O)CC(=O)C(=O)Nc1ccccc1[N+](=O)[O-]`, for which the outcome was inactive.

With `CCOC(=O)C1=C(C)N(c2ccccc2)C2=C(C(=O)N(c3ccccc3)C2c2ccccc2)C1c1ccccc1` (stereo not given), the EC50 was above 67.6 µM and the IC50 was above 67.6 µM.

Consider `O=C(CC1(O)C(=O)Nc2ccc(Br)cc21)c1ccc(Cl)cc1` (stereo not given), for which the EC50 is above 93.3 µM and the IC50 was above 93.3 µM.

`Cc1cc(O)c(C=O)c2c1C(=O)Oc1c(COCO/C=C/C(=O)O)c(O)c(C(=O)O)c(C)c1O2` yielded an EC50 of 52.5 µM and an IC50 of 61.7 µM.

Regarding `CC(=O)[O-].COc1cccc(/C=N\[N-]C(=O)c2ccncc2)c1.[Cu+2].[OH3+].[OH3+].c1cnc2c(c1)ccc1cccnc12`, the EC50 was above 200 µM and the IC50 stood at 61.7 µM.

`NCC(O)c1ccc(Nc2ccnc3cc(Cl)ccc23)cc1` (stereo not given): the EC50 is above 93.3 µM and the half-inhibitory concentration (IC50) is 38 µM.

Take `O=c1cc(-c2ccccc2)[nH]c(=S)[nH]1`: the EC50 is above 200 µM and the IC50 is above 200 µM.

`C=C(COC(=O)C(C)C)[C@H]1Oc2ccc(C(C)=O)cc2[C@@H]1OC(=O)C(C)C`: the EC50 is above 200 µM and the IC50 is above 200 µM.

For the compound `O=C(O/N=C1\CCCC\C1=C/c1ccccc1)c1ccc([N+](=O)[O-])cc1`, the outcome was inactive.

For the compound `Cc1cc(Cl)cc2c1S/C(=C1\Sc3c(C)cc(Cl)cc3C1=O)C2=O`, the EC50 is above 200 µM and the IC50 was above 200 µM.

For `Cn1c2ccccc2c2nnc(SCCN3CCOCC3)nc21`, the EC50 is above 200 µM and the IC50 was above 200 µM.

The values are drawn from PubChem BioAssay AID179 (DTP/NCI, 2004).
